Measured values as given in ChEMBL document CHEMBL1140518, “Unique spirocyclopiperazinium salt III: further investigation of monospirocyclopiperazinium (MSPZ) salts as potential analgesics” (Bioorg Med Chem Lett, 2007).

Legend:
[1] = test system: Mus musculus; assay: Analgesic activity in mouse assessed as inhibition of acetic acid-induced writhing responses at 31 umol/kg, ip between 5 to 10 mins; format: functional; parameters: scale not given: the % may be the effect or the level left
[2] = test system: Mus musculus; assay: […] in ip dosed nociception mouse model; format: functional
[3] = target: Neuronal acetylcholine receptor; alpha4/beta2 (Homo sapiens, UniProt P17787+P43681); assay: Inhibition of alpha-4-beta-2 nAChR; format: protein-complex assay
Sequence of Neuronal acetylcholine receptor; alpha4/beta2 (P17787 whole entry): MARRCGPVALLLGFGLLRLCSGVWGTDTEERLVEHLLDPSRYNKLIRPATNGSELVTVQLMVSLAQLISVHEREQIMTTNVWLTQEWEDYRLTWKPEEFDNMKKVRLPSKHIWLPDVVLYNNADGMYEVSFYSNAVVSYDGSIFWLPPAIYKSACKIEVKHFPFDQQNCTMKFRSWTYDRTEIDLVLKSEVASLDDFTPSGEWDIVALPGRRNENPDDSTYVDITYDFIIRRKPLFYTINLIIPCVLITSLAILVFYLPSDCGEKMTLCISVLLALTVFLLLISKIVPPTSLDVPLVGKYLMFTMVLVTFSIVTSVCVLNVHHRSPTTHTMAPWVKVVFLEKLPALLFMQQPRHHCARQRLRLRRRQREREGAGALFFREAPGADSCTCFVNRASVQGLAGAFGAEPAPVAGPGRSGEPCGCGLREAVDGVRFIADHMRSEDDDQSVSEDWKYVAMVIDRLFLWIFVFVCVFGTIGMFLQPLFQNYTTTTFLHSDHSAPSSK
Sequence of Neuronal acetylcholine receptor; alpha4/beta2 (P43681 whole entry): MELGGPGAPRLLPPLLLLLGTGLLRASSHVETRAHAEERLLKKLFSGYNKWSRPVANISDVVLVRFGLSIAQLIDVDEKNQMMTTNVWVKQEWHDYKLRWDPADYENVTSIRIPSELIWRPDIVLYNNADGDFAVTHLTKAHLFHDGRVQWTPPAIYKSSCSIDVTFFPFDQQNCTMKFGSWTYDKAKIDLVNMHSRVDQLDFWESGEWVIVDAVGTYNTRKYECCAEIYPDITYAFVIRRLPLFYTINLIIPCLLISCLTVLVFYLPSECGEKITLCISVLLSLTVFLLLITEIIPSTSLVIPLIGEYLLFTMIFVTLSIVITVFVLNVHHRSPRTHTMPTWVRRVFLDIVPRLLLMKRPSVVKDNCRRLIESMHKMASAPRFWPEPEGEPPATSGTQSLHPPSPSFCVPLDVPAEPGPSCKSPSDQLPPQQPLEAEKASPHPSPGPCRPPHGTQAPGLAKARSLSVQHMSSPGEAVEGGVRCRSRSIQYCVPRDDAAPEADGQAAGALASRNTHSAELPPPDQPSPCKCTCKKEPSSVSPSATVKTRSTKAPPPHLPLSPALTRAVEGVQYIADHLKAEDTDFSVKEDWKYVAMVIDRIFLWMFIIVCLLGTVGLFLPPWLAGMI

Row | SMILES | Activity [1] [%] | LD50 [2] [µmol/kg] | IC50 [3] [µM]
1 | O=[N+]([O-])c1ccc(N2CC[N+]3(CCCC3)CC2)cc1.[Br-] | 16 | – | –
2 | C[N+]1(C)CCN(c2cccc([N+](=O)[O-])c2)CC1.[I-] | -16 | – | –
3 | C[N+]1(C)CCN(c2cccc([N+](=O)[O-])c2)CC1.[Br-] | 22 | – | –
4 | COc1ccc(N2CC[N+]3(CCCC3)CC2)cc1.[Br-] | 56 | – | –
5 | CC1C[N+]2(CCN(CCc3ccc([N+](=O)[O-])cc3)CC2)CC(C)O1.[Cl-] (stereo not given) | -24 | – | –
6 | CC1C[N+]2(CCN(CCc3ccccc3)CC2)CC(C)O1.[Cl-] (stereo not given) | 65 | 1550 | > 10
7 | [Cl-].c1ccc(CCN2CC[N+]3(CCCC3)CC2)cc1 | -36 | – | –
8 | CC1C[N+]2(CCN(CCCc3ccccc3)CC2)CC(C)O1.[Cl-] (stereo not given) | -19 | – | –
9 | C[N+]1(C)CCN(CCc2ccccc2)CC1.[Cl-] | 18 | – | –
10 | CC1C[N+]2(CCN(Cc3ccccc3)CC2)CC(C)O1.[Cl-] (stereo not given) | 21 | – | –
11 | [Br-].c1ccc(N2CC[N+]3(CCCC3)CC2)cc1 | 20 | – | –
12 | [Cl-].c1ccc(CCN2CC[N+]3(CCCCCC3)CC2)cc1 | 4 | – | –
13 | CC1C[N+]2(CCN(C/C=C/c3ccccc3)CC2)CC(C)O1.[Cl-] (stereo not given) | -43 | – | –
14 | CC1C[N+]2(CCN(CCc3ccccn3)CC2)CC(C)O1.[Cl-] (stereo not given) | -2 | – | –
15 | C=CCN1CC[N+]2(CC1)CC(C)OC(C)C2.[Cl-] (stereo not given) | 49 | – | –
16 | [Cl-].c1ccc(CCN2CC[N+]3(CCCCC3)CC2)cc1 | 5 | – | –
17 | O=[N+]([O-])c1cccc(N2CC[N+]3(CCCC3)CC2)c1.[Br-] | 61 | – | –
18 | COc1ccc(CCN2CC[N+]3(CC2)CC(C)OC(C)C3)cc1.[Cl-] (stereo not given) | -47 | – | –
